Two molecules from patent US6703361B2, “Method of treating or preventing Type 1 diabetes by oral administration of insulin” (AutoImmune Inc., priority 1990, dated 2004) can be followed below.

Entries after “also recorded” stand apart in the source; their conditions may differ.

Holding throughout (type): in vivo
Test [1] deals with NOD mice suffering from hyperglycemia. As to the kind of experiment: Treatment of initial stages of diabetes in NOD mice (Example 5). Particulars: oral and aerosol administration to hyperglycemic NOD mice; expected. Here is the method: Insulin (0 to 1 mg as in Examples 1 and 2) will be administered to NOD mice which are suffering from hyperglycemia in an oral and aerosol form. The treatments will begin by weeks 12-20 of age, by which the serum glucose levels are at hyperglycemic concentrations in a certain percentage of animals prior to onset of diabetes.

The subject of the next test is insulitis in NOD mice. As to the kind of experiment: Preliminary experiments on insulitis in insulin-fed NOD mice. The following applies: NOD mice fed 1 mg of insulin vs PBS-fed, data not shown. An excerpt: Therefore, oral administration of insulin to NOD mice appeared to be affecting the infiltration of immune system cells into the pancreas and thus halting disease progression by preserving beta cell function.

Test [2] has as its system spontaneous diabetes in NOD mice. As to the kind of experiment: Effect of feeding porcine insulin on spontaneous diabetes in NOD mice (Example 1). An excerpt:
NOD (non-obese diabetic mice) were obtained from Taconic Laboratories (Germantown, Mass.) at 4 weeks of age. There were a total of 30 animals in each of the groups mentioned below at the beginning of the experiment. At 4½ weeks of age, animals were orally administered Porcine insulin (Novo Laboratories, Danbury, Conn.). Each animal received two treatments orally twice a week until 9 weeks of age. The mice were fed either saline (control) or 10 micrograms, 100 micrograms, or 1 milligram of Porcine insulin. The animals were fed (gavaged) with an 18 gauge ball-point needle (Popper and Sons, Inc., New Hyde Park, N.Y.). Beginning at 10 weeks the animals were then fed once a week for a total of 33 weeks. Beginning at 12 weeks the urine was tested weekly for the presence of glucose using Glucosuria test tape (Eli Lilly, Indianapolis, Ind.). If an animal tested 3+ or higher on the glucose urine test, a serum sample was taken and blood glucose measured using a glucose analyzer (Beckman). If the blood glucose was 220 or higher, the animals were classified as diabetic and then sacrificed.

A further test has as its system diabetes in NOD mice. Kind of test: Effect of aerosol administration of insulin on diabetes in NOD mice (Example 4). Particulars: insulin 0 to 1 mg in aerosol form by nebulizer; expected. The procedure:
Insulin (0 to 1 mg as in Examples 1 and 2) will be administered to NOD mice as described above in Examples 1 and 2 except in aerosol form by nebulizer.

Test [3] deals with blood glucose in fasting NOD mice. Kind of test: Glucose post oral insulin in fasting 7 week NOD mice (Example 2). Particulars: for blood glucose after feeding: 1 mg fed orally, fasting 7 week old NOD mice. Here is the method: In order to determine whether any endocrinologic (i.e. direct lowering of blood sugar) effects occurred following the feeding of insulin, 7 week old NOD mice (5 mice per group) were fed 1 mg of porcine insulin or 1 mg of myelin basic protein (obtained from Pel Freez, Rogers, Ark.) as a control protein. Blood glucose was then measured over the next 24 hour period. As a positive control, a separate group of animals were injected subcutaneously with 20 micrograms of Porcine insulin. All animals were kept in the fasting state.

For the molecule Porcine insulin, the beta cell function entry in test [1] is on record as “preservation of beta cell function”. For the same molecule, the serum glucose concentrations result in test [1] was “reduction in serum glucose concentrations to near normal levels”. In addition, the “inflammatory immune system cells surrounding the pancreas (insulitis)” value in the test with insulitis in NOD mice was “fewer inflammatory immune system cells surrounding the pancreas”. Besides, the development of diabetes entry is on record as “none of the mice went on to develop diabetes; also recorded: no diabetes developed; also recorded: None of the animals developed diabetes” in test [2] (NOD mice fed 1 mg insulin orally), “diabetes developed” in test [2] (NOD mice fed 10 micrograms insulin orally) and “diabetes developed” in test [2] (NOD mice fed 100 micrograms insulin orally). The incidence of diabetes result in test [2] (all doses of orally administered insulin tested (10 micrograms, 100 micrograms, 1 mg)) is “lower incidence of diabetes; also recorded: reduced the numbers of these mice which subsequently went on to develop diabetes”. For the same molecule, the “prevention of manifestation of symptoms (hyperglycemia) of Type 1 diabetes” value in the test with diabetes in NOD mice is on record as “effective in preventing the manifestation of symptoms”. The “blood glucose after feeding” value in test [3] is “no drop in the blood glucose”. Further, in test [3] (1 mg oral insulin, NOD mice), the “endocrinologic (metabolic) effects from feeding” value was “not a metabolic effect; also recorded: no endocrinologic (metabolic) effects”. The “period over which the glucose decrease persisted” value in test [3] (20 micrograms porcine insulin injected subcutaneously, fasting NOD mice) is 4 h. Also, the “decrease in glucose level” value in test [3] (20 micrograms porcine insulin injected subcutaneously, fasting NOD mice (positive control)) is reported as “approximately 80 mg %”.

B1: myelin basic protein (protein, UniProt P02687 1-169, looked up)
Myelin basic protein: AAQKRPSQRSKYLASASTMDHARHGFLPRHRDTGILDSLGRFFGSDRGAPKRGSGKDGHHAARTTHYGSLPQKAQGHRPQDENPVVHFFKNIVTPRTPPPSQGKGRGLSLSRFSWGAEGQKPGFGYGGRASDYKSAHKGLKGHDAQGTLSKIFKLGGRDSRSGSPMARR
notes: myelin basic protein (obtained from Pel Freez) fed as a control protein
Turning to B1, the “blood glucose after feeding” value in test [3] was “no drop in the blood glucose”.
